From PMC12061237, “Berberine is a Novel Mitochondrial Calcium Uniporter Inhibitor that Disrupts MCU‐EMRE Assembly” (Advanced Science, 2025)

Molecular target: T1, GST-MCU (recombinant) (Homo sapiens, UniProt Q8NE86)
T1 construct: recombinant GST fusion
T1 sequence (Q8NE86 51-351): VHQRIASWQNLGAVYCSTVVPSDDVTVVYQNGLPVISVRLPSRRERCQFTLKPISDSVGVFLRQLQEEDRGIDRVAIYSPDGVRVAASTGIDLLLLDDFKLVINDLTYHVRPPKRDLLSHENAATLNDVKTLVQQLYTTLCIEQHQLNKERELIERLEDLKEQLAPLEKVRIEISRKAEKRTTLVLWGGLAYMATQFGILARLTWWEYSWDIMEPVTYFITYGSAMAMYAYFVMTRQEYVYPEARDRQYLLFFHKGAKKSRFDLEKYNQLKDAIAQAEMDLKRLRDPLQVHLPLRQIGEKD
Assay: in vitro biotin pull-down, immunoblot
Assay type: binding
Conditions: biotin-labelled compound 2 µg, 4 °C; competed by free berberine

Q: With `COc1ccc2cc3[n+](cc2c1OC(=O)CCCCCNC(=O)CCCC[C@@H]1SC[C@@H]2NC(=O)N[C@@H]21)CCc1cc2c(cc1-3)OCO2` [Biotin-Berberine] as the compound, how does the “in vitro biotin pull-down, immunoblot” value read?
A: The value was “Biotin‐BBR directly binds to recombinant glutathione‐S‐transferase (GST)‐MCU”.
